The values below come from patent publication US11739098B2 (BRISTOL-MYERS SQUIBB COMPANY, priority 2017, dated 2023).

Holding throughout (assay type): cell-based
For one assay, the target named is T1, human TLR7 (Homo sapiens, UniProt Q9NYK1).
T1 construct: host or cells: HEK-Blue cells (HEK293-derived reporter line)
T1 sequence (Q9NYK1 27-1049): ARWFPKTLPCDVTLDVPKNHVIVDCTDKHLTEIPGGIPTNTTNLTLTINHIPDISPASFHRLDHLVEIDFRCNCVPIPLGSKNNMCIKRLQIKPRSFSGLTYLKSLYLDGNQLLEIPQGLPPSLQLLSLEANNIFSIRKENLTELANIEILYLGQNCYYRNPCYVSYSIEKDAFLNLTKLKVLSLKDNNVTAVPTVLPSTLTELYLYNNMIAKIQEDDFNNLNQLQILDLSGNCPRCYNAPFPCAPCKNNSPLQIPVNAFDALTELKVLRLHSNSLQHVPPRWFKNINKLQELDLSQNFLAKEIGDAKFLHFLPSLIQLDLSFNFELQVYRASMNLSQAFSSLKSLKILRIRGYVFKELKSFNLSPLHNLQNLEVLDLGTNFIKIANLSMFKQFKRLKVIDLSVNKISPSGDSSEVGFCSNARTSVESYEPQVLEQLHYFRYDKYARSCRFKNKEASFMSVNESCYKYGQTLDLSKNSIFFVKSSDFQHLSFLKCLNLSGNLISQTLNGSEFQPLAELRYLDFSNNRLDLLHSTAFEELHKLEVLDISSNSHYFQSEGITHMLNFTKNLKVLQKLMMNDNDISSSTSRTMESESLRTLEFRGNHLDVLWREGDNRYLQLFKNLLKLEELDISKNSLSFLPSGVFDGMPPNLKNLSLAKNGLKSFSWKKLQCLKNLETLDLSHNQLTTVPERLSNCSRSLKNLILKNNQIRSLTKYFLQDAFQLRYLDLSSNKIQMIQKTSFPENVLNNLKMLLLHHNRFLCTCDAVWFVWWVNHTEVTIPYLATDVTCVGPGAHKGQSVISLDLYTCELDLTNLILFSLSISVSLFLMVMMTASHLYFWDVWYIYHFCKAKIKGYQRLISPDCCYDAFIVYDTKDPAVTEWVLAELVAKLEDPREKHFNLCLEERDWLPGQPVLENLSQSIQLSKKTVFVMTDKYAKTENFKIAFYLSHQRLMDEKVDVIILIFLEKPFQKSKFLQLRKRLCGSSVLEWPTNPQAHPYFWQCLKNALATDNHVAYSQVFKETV
The assay can be described thus: TLR7 inhibition reporter assay (HEK-Blue cells, SEAP reporter, gardiquimod stimulation). The note with it: HEK-Blue cells overexpressing human TLR7, SEAP reporter, gardiquimod 7.5 μM. Summed up: (§1)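 Agonists (final): TLR7 gardiquimod 7.5 μM; TLR8 R848 15.9 μM; TLR9 ODN2006 5 nM. HEK-Blue reporter cells, 30 min RT compound pre-incubation, 0.05 nM–50 μM dose range, 22 h at 37 °C, colorimetric SEAP detection medium. % inhibition relative to agonist+DMSO and known-inhibitor wells.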
(In general: Reporter assays use an easily measured gene product as a stand-in for the process of interest.)

The target in the next assay is T2, human TLR8 (Homo sapiens, UniProt Q9NR97).
T2 construct: host or cells: HEK-Blue cells (HEK293-derived reporter line)
T2 sequence (Q9NR97 27-1041): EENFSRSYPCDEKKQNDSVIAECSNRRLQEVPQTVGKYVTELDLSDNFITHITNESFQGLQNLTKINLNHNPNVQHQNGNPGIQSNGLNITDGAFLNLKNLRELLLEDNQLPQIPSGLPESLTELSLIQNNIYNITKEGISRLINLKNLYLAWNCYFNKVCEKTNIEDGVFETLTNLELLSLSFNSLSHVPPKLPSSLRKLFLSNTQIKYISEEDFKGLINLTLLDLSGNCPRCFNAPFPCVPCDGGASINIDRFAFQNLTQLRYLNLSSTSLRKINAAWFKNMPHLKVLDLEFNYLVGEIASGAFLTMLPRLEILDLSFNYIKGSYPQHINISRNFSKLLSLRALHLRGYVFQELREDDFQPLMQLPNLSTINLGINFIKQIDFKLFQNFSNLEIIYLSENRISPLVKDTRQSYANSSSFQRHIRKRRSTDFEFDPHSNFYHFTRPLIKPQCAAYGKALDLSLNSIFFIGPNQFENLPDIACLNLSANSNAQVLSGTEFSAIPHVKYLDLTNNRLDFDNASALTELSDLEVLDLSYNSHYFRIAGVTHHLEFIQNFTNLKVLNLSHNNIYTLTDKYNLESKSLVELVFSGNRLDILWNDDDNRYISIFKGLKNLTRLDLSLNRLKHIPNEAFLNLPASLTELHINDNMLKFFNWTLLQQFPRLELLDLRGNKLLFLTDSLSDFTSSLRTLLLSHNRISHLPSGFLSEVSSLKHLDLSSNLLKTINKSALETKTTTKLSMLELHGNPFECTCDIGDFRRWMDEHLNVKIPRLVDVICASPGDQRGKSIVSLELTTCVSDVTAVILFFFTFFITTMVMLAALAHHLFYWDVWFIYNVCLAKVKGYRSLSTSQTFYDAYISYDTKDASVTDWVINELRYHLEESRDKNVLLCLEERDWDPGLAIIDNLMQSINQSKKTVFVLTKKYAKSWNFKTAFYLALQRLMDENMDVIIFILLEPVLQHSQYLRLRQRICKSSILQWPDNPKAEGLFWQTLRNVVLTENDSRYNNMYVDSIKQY
The assay is described as follows: TLR8 inhibition reporter assay (HEK-Blue cells, SEAP reporter, R848 stimulation). Conditions: HEK-Blue cells overexpressing human TLR8, SEAP reporter, R848 15.9 μM. Summed up:
as §1

A further assay has as its target T3, human TLR9 (Homo sapiens, UniProt Q9NR96).
T3 construct: host or cells: HEK-Blue cells (HEK293-derived reporter line)
T3 sequence (Q9NR96 26-1032): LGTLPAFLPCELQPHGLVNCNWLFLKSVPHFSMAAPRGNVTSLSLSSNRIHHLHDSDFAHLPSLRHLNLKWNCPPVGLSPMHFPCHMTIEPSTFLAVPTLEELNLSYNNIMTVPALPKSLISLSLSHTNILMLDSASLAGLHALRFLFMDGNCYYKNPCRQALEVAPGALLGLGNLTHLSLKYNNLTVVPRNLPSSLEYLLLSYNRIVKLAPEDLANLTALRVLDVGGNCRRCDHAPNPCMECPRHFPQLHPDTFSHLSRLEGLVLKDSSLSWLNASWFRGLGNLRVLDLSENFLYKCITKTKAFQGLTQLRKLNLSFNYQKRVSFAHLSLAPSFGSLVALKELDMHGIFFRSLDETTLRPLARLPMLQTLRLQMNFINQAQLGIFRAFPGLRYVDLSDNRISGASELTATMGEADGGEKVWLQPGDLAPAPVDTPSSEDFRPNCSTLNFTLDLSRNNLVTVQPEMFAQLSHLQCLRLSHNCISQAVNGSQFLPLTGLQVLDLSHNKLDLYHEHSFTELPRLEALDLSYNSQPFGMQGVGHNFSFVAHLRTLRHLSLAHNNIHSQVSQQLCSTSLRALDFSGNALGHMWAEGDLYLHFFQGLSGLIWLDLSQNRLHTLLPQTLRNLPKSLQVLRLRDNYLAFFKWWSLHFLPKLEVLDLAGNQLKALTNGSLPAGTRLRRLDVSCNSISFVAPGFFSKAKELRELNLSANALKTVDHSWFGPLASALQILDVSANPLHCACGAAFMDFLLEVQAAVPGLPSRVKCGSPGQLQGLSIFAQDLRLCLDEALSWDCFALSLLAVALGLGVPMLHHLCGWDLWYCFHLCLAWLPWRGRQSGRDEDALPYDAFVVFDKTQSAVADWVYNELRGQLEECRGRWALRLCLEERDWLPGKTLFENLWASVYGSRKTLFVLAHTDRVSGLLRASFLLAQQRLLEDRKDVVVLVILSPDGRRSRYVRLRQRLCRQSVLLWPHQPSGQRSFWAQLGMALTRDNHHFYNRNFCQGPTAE
The assay is described as follows: TLR9 inhibition reporter assay (HEK-Blue cells, SEAP reporter, ODN2006 stimulation). The note with it: HEK-Blue cells overexpressing human TLR9, SEAP reporter, ODN2006 5 nM. Summed up: as §1

Where only a bound is given, the exact number is not on record here.

As usually defined, the IC50 is the point on the concentration scale where inhibition reaches its midpoint. A low value points to greater potency in that assay. Take `CNC(=O)CN1CCC(c2ccc3[nH]c(-c4cc(C)c5oc(=O)[nH]c5c4)c(C(C)C)c3c2)CC1` [Example 337, 2-(4-(3-isopropyl-2-(7-methyl-2-oxo-2,3-dihydrobenzo[d]oxazol-5-yl)-1H-indol-5-yl)piperidin-1-yl)-N-methylacetamide]: the IC50 on human TLR7 is 100 to 1000 nM; against human TLR8, 100 to 1000 nM; against human TLR9 it was 1000 to 50000 nM.

In the case of `Cc1nc2cc(-c3[nH]c4ccc(C5CCN(CC(=O)N(C)C)CC5)cc4c3C(C)C)cc(C)c2o1` [Example 338, 2-(4-(2-(2,7-dimethylbenzo [d]oxazol-5-yl)-3-isopropyl-1H-indol-5-yl)piperidin-1-yl)-N,N-dimethylacetamide], the half-inhibitory concentration (IC50) at human TLR7 was below 100 nM; against human TLR8, 100 to 1000 nM; at human TLR9, 1000 to 50000 nM.

Turning to `CNC(=O)CN1CCC(c2ccc3[nH]c(-c4cc(C)c5oc(C)nc5c4)c(C(C)C)c3c2)CC1` [Example 339, 2-(4-(2-(2,7-dimethylbenzo[d]oxazol-5-yl)-3-isopropyl-1H-indol-5-yl)piperidin-1-yl)-N-methylacetamide], the concentration for half-maximal inhibition (IC50) on human TLR7 is below 100 nM; against human TLR8 it was 100 to 1000 nM; against human TLR9, 1000 to 50000 nM.

As for `COc1cc(-c2[nH]c3ccc(C4CCN(CC(=O)N(C)C)CC4)cc3c2C(C)C)c2ccccc2n1` [Example 340, 2-(4-(3-isopropyl-2-(2-5 methoxyquinolin-4-yl)-1H-indol-5-yl)piperidin-1-yl)-N,N-dimethylacetamide], the concentration for half-maximal inhibition (IC50) was below 100 nM on human TLR7, 100 to 1000 nM at human TLR8 and 1000 to 50000 nM at human TLR9.

`CNC(=O)CN1CCC(c2ccc3[nH]c(-c4cc(CO)c5nccn5c4)c(C(C)C)c3c2)CC1` [Example 341, 2-(4-(2-(8-(hydroxymethyl)-6-imidazo[1,2-a]pyridinyl-6-yl)-3-isopropyl-1H-indol-5-yl)piperidin-1-yl)-N-methylacetamide]: the IC50 against human TLR7 was below 100 nM; against human TLR8, below 100 nM; at human TLR9, 100 to 1000 nM.

Take `CNC(=O)CN1CCC(c2ccc3[nH]c(-c4cc(C(C)(C)O)c5nccn5c4)c(C(C)C)c3c2)CC1` [Example 342, 2-(4-(2-(8-(2-hydroxypropan-2-yl)imidazo[1,2-a]pyridin-6-yl)-3-isopropyl-1H-indol-5-yl)piperidin-1-yl)-N-methylacetamide]: the half-maximal inhibitory concentration (IC50) at human TLR7 was below 100 nM; against human TLR8, 100 to 1000 nM; at human TLR9 it was 100 to 1000 nM.

As to `CC(C)c1c(-c2cc(C(C)(C)O)c3nccn3c2)[nH]c2ccc(C3CCN(CC(=O)N(C)C)CC3)cc12` [Example 343, 2-(4-(2-(8-(2-hydroxypropan-2-yl)imidazo[1,2-a]pyridin-6-yl)-3-isopropyl-1H-indol-5-yl)piperidin-1-yl)-N,N-dimethylacetamide], the IC50 on human TLR7 is below 100 nM; at human TLR8, 100 to 1000 nM; against human TLR9, 100 to 1000 nM.

In the case of `Cc1cc(-c2[nH]c3ccc(C4CCN(CC(=O)N(C)C)CC4)cc3c2C(C)C)cn2cc(C(=O)N(C)CCO)nc12` [Example 344, 6-(5-(1-(2-(dimethylamino)-2-oxoethyl)piperidin-4-yl)-3-isopropyl-1H-indol-2-yl)-N-(2-hydroxyethyl)-N,8-dimethylimidazo[1,2-a]pyridine-2-carboxamide], the half-inhibitory concentration (IC50) is below 100 nM against human TLR7, below 100 nM at human TLR8 and 1000 to 50000 nM against human TLR9.

For the molecule `CNC(=O)CN1CCC(c2ccc3[nH]c(-c4cc(C)c5nc(C(=O)N(C)CCO)cn5c4)c(C(C)C)c3c2)CC1` [Example 345, N-(2-hydroxyethyl)-6-(3-isopropyl-5-(1-(2-(methylamino)-2-oxoethyl)piperidin-4-yl)-1H-indol-2-yl)-N,8-dimethylimidazo[1,2-a]pyridine-2-carboxamide], the IC50 on human TLR7 was below 100 nM; against human TLR8 it was 100 to 1000 nM; at human TLR9 it was 1000 to 50000 nM.

Consider `CNC(=O)c1cn2cc(-c3[nH]c4ccc(C5CCN(CC(=O)N(C)C)CC5)cc4c3C(C)C)cc(C)c2n1` [Example 346, 6-(5-(1-(2-(dimethylamino)-2-oxoethyl)piperidin-4-yl)-3-isopropyl-1H-indol-2-yl)-N,8-dimethylimidazo[1,2-a]pyridine-2-carboxamide], for which the IC50 against human TLR7 is below 100 nM; at human TLR8, below 100 nM; at human TLR9, 1000 to 50000 nM.

In the case of `CNC(=O)CN1CCC(c2ccc3[nH]c(-c4cc(OC)n5nc(C)nc5c4)c(C(C)C)c3c2)CC1` [Example 347, 2-(4-(3-isopropyl-2-(5-methoxy-2-methyl-[1,2,4]triazolo[1,5-a]pyridin-7-yl)-1H-indol-5-yl)piperidin-1-yl)-N-methylacetamide], the IC50 against human TLR7 was below 100 nM; against human TLR8 it was below 100 nM; against human TLR9, 1000 to 50000 nM.

Regarding `COc1cc(-c2[nH]c3ccc(C4CCN(CC(=O)N(C)C)CC4)cc3c2C(C)C)cc2nc(C)nn12` [Example 348, 2-(4-(3-isopropyl-2-(5-methoxy-2-methyl-[1,2,4]triazolo[1,5-a]pyridin-7-yl)-1H-indol-5-yl)piperidin-1-yl)-N,N-dimethylacetamide], the half-inhibitory concentration (IC50) was below 100 nM on human TLR7, below 100 nM against human TLR8 and 1000 to 50000 nM on human TLR9.
